System: panel of 65 receptors
Experiment: Multiple receptor screening assay
Type: binding
Conditions: single concentration of 10 μM
Protocol: (R)-3-((E)-2-(Pyrrolidin-3-yl)vinyl)-5-(tetrahydropyran-4-yloxy)pyridine or a salt thereof was tested for selectivity against a panel of 65 receptors.

C(=C\[C@H]1CCNC1)/c1cncc(OC2CCOCC2)c1 [Compound A, (R)-3-((E)-2-(pyrrolidin-3-yl)vinyl)-5-(tetrahydropyran-4-yloxy)pyridine]
Multiple receptor screening assay, receptors hit: only to neuronal nicotinic receptors (α-BnTx insensitive)
Multiple receptor screening assay, receptors hit (listed as (R)-3-(2-(pyrrolidin-3-yl)vinyl)-5-((tetrahydro-2H-pyran-4 yl)oxy)pyridine): Only nicotinic

— patent US8153821B2, “Compounds” (priority 2008, dated 2012)
